Experimental data as given in patent publication US6605639B1, “Ligands of nuclear receptor” (Nuclear Receptor Research, Ltd., priority 1998, dated 2003).
Where “and” joins values, the source holds several entries; their conditions need not be identical. Equal entries are not always repeated.

Legend:
[1] = test system: db/db mice; experiment: Long-term oral administration to hereditary obese diabetic mice (pancreas function protecting effect); assay type: in vivo, mouse
Description: It has been already supported by the results of several experiments that oral administration of the compounds of the present invention enhances peripheral insulin sensitivity and ameliorates metabolic disorders in db/db mice. It is, however, noteworthy that the compounds of the present invention exert an effect in retaining the function pancreatic synthesis of insulin over a long period, which is defective in diabetes. This effect was clearly indicated by serum insulin level and pathologic observation on pancreas of db/db mice to which Compound-14 had been administered over about 1 year. […] Moreover, Compound-14 ameliorated urinary protein throughout the experimental period. […] Namely, there arose a conversion of non insulin-dependent diabetes mellitus into insulin-dependent diabetes mellitus,analogous to human type II diabetes. Even body weight was reduced to a level similar to that of normal litter after the 40th week, the db/db mice lacking leptin receptor underwent overeating and food energy, which could not be anabolized due to the poverty of insulin, was excreted from the body in a large amount.
Since they lack hereditarily leptin […], db/db mice have no appetite control even at satiety. As a result, they suffer from hyperinsulinemia due to overeating and serious obesity, thereby undergoing the onset of diabetes. The compounds of the present invention were orally administered to db/db mice for 40 weeks (from 11 to 51 weeks after birth) (FIG. 2).
As obesity attained a maximum, insulin requirements exceeded insulin production levels. Thus, pancreatic Langerhans' islet β-cells having insulin depot granules therein were mostly degranulated and there arose insulin depot poverty. The pancreatic Langerhans' islet β-cells having been working severely to produce insulin in excess gradually fatigued. […] From 23rd week after birth, it became impossible to anabolize all of the food energy taken in excess due to the insufficient function of insulin, which induced a decrease in body weight. The food energy which could not be anabolized was excreted as urinary glucose. As a result, the urinary glucose increased with a decrease in the blood insulin level. […] Namely, there arose the conversion of noninsulin-dependent diabetes mellitus into insulin-dependent diabetes mellitus in clinical case of humans. […] However, Compound-14 has no function of restoring leptin receptor and thus exerts no effect on the process of the induction of obesity by hyperinsulinemia due to overeating.
Since pancreatic Langerhans' islet β-cells are of key importance in various aspects of diabetes, the ability of the compound of the present invention to maintain the function of these cells over a long period of time, is very important in terms of the treatment and prevention of diabetes.

[2] = test system: rats given streptozotocin; experiment: Relief of onset of streptozotocin-induced diabetes; assay type: in vivo, rat; settings: male Wistar rats, streptozotocin 45 mg/kg i.v.; 20 mg/kg/day oral, 10 days; Mean ± SE
Method: Eighteen male Wistar rats weighing about 200 g were divided into 3 groups at random. To the animals of 2 groups, 45 mg/kg of streptozotocin was intravenously administered. One of these groups was regarded as a control group, while the other was regarded as the Compound-6 administration group. To the remaining 1 group which was regarded as the normal control group, a 1/10 M citrate buffer (pH 3.5) […] was intravenously administered. Immediately after the administration of streptozotocin, a suspension of Compound-6 in acacia was orally administered once a day continuously for 10 days in a dose of 20 mg/kg/day. To other groups, an acacia solution alone was administered. After fasting for 6 hours after the final administration, blood was collected from the heart of each animal and the blood glucose level and the blood insulin level were measured. As the data given in Table 7a show, the oral administration of Compound-6 inhibited an increase in the blood glucose level and a decrease in the blood insulin level.
Eighteen male SD rats weighing about 250 g were divided into 3 groups at random. […] To the normal control group and the streptozotocin control group, the acacia solution alone was administered orally. After fasting for 6 hours after the final administration, blood was collected from the heart of each animal and the blood glucose level and the blood insulin level were measured. As the data given in Table 7b show, the oral administration of Compound-5 inhibited an increase in the blood glucose level and a decrease in the blood insulin level.

[3] = Oral administration of radioisotope-labeled compound: recovery and distribution of radioactivity; assay type: in vivo, rat; settings: once
Description: The Schiff base formed by the reaction of the compound of the present invention with serum protein is an inactivated compound with a masked biological activity. […] It is still interesting that the radioactive compound incorporated into the adipocyte tissue was free Compound-6 dissolved in oil droplets in cells. It is unknown why the radioactivity is distributed selectively in adipocyte tissue and accumulated with the passage of time. […] Namely, the compound of the present invention is converted into a highly safe Schiff base with the masked biological activity at the step of being absorbed via digestive tract. This Schiff base is adsorbed on the target cell surface layer and incorporated into the cells via endocytosis. Then it is hydrolyzed to regenerate the free Compound-6. The free Compound-6 is dissolved in oil droplets in depot fat. In adipocytes, it is gradually dissolved in cytoplasm and exerts its effect. When depot fat in white adipocyte tissue is transported into other tissues as an energy source, the free Compound-6 is transported together with the fat. That is to say, it also serves as a depot simultaneously. The compound according to the present invention is hardly incorporated into other tissues. […] Different from retinoids, the compounds of the present invention can exert the effects without causing the side effects inherent to retinoids. The reasons are, without doubt, related to kinetics (absorption, transportation, regeneration of activated compound in target cell surface layer, etc.) of the compounds of the present invention, which differ from those of retinoids. […]

Compound | urinary glucose compared with the control group ([1]; 0.1% in feed, oral, 40 weeks (11 to 51 weeks after birth)) | blood glucose level ([1]; 0.1% in feed, oral, about 40 weeks after birth) | function of pancreatic β-cells (insulin productivity) ([1]; long-term oral administration, about 1 year) | urinary protein ([1]; throughout the experimental period) | Blood glucose [2] [mg/dL] | Serum IRI [2] [mU/ml] | radioactivity incorporated into white adipocyte tissue [3] | route of excretion of radioactivity [3] | time after which radioactivity disappeared in most of the organs [3] [days]
CC(/C=C/[C@@]1(C)[C@H](C)CCC(=O)[C@@H]1C)=C\Cc1c(O)c(C=O)c(C)c(Cl)c1OCC(=O)O [Compound-14, 4-O-carboxymethylASC] | scarcely excreted into urine and 1/100 | almost comparable to normal litter | completely sustained over 1 year | ameliorated | – | – | – | – | –
COc1c(Cl)c(C)c(C=O)c(O)c1C/C=C(C)/C=C/[C@@]1(C)[C@H](C)CCC(=O)[C@@H]1C [Compound-6, 4-O-methylASC] | – | – | – | – | 277.2 ± 52.44 | 12.3 ± 1.65 | elevated day by day | mostly excreted via feces | 3
